Test [1] concerns the target RAC-beta serine/threonine-protein kinase (Homo sapiens, UniProt P31751). Kind of test: (§1) Akt2 TR-FRET assay: His-tagged human recombinant kinase full-length Akt2 expressed in insect cells and activated by PDK1 was purchased from Invitrogen (part number PV 3975). As substrate for the kinase reaction the biotinylated peptide biotin-Ahx-KKLNRTLSFAEPG (C-terminus in amide form) was used which can be purchased e.g. from the company Biosynthan GmbH (Berlin-Buch, Germany). For the assay 50 nl of a 100 fold concentrated solution of the test compound in DMSO was pipetted into a black low volume 384 well microtiter plate (Greiner Bio-One, Frickenhausen, Germany), 2 μl of a solution of Akt2 in assay buffer [50 mM TRIS/HCl pH 7.5, 5 mM MgCl2, 1 mM dithiothreitol, 0.02% (v/v) Triton X-100 (Sigma)] were added and the mixture was incubated for 15 min at 22 °C. to allow prebinding of the test compounds to the enzyme before the start of the kinase reaction. Then the kinase reaction was started by the addition of 3 μl of a solution of adenosine-tri-phosphate (ATP, 16.7 μM=>final conc. in the 5 μl assay volume is 10 μM) and substrate (1.67 μM=>final conc. in the 5 μl assay volume is 1 μM) in assay buffer and the resulting mixture was incubated for a reaction time of 60 min at 22 °C. […].

In test [2] the target is RAC-alpha serine/threonine-protein kinase (Homo sapiens, UniProt P31749). The test is described as §1, with “Akt1 TR-FRET” for “Akt2 TR-FRET”, “full-length Akt1” for “full-length Akt2”, “cells” for “cells and activated by PDK1”, “purchased form” for “purchased from”, “PV 3599).” for “PV 3975).”, “of Akt1” for “of Akt2”.
Sequence of RAC-alpha serine/threonine-protein kinase (P31749 whole entry): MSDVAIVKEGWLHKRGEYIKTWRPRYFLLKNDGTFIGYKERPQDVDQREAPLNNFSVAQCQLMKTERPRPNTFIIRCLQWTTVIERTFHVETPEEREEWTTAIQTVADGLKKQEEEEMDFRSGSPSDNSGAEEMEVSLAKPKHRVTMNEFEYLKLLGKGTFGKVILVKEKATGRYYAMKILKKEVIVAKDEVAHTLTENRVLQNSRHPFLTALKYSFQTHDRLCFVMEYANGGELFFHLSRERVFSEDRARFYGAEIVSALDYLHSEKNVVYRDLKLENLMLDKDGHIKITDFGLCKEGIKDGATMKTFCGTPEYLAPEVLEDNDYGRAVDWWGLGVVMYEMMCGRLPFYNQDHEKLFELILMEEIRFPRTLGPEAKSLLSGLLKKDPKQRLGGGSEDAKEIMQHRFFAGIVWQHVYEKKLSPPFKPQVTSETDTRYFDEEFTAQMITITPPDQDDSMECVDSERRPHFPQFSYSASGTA

Sequence of RAC-beta serine/threonine-protein kinase (P31751 whole entry): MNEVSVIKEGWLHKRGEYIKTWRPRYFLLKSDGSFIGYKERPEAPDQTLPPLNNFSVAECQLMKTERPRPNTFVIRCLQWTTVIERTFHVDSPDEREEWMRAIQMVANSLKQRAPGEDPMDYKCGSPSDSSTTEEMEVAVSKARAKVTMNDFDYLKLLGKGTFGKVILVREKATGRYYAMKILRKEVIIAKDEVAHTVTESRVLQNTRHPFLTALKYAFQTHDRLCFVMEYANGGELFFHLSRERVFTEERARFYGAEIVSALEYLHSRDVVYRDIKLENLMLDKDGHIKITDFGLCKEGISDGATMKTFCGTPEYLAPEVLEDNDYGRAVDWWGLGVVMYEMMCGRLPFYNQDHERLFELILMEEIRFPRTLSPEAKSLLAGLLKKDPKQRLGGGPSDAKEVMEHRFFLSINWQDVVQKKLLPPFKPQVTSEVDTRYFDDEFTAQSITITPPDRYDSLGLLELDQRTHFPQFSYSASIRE

As to `CCOC(=O)c1cn2c(-c3ccccc3)c(-c3ccc(C4(N)CCC4)cc3)nc2cn1`, the IC50 in test [1] came to 130 nM; in test [2], 100 nM.

The values are drawn from ChEMBL document CHEMBL3886620, “Substituted imidazopyrazines as Akt kinase inhibitors” (2016).
